Experimental findings from patent publication US10329262B2, “Quinazolinone antibiotics” (priority 2013, dated 2019) are described below.

The test system of one experiment is S. aureus NRS70. As to the kind of experiment: MIC, broth microdilution, S. aureus NRS70. It is filed as cell-based, Staphylococcus aureus. The settings on record: for MIC: Staphylococcus aureus; for In vitro AB activity (MIC): Table 2.1, S. aureus NRS70. As for the experimental part:
(§1) MICs were evaluated following the CLSI microdilution method in BBL™ Mueller-Hinton II broth (Wikler et al., Clinical Laboratory Standards Institute Document M7-A7, 29 (2009)). Briefly, two-fold serial dilutions of compound were prepared in triplicate in 96-well plates and inoculated with 5×10^5 cfu/mL of the bacterial suspension. Plates were incubated at 37° C. for 16-20 hours.

A further experiment relates to S. aureus NRS123. As to the kind of experiment: MIC, broth microdilution, S. aureus NRS123. It is filed as cell-based. The settings on record: Staphylococcus aureus. As for the experimental part: as §1
Background: In broth dilution the organism is exposed to a series of concentrations in liquid medium.

Experiment [1] relates to S. epidermidis ATCC 35547. The experiment can be described thus: MIC, CLSI broth microdilution, S. epidermidis ATCC 35547. Type of experiment: cell-based. The settings on record: for MIC: Staphylococcus epidermidis, ATCC35547; for In vitro AB activity (MIC): Table 2.1, S. epidermidis ATCC 35547. As for the experimental part: as §1
For experiment [2], the system named is S. haemolyticus ATCC 29970. As to the kind of experiment: MIC, CLSI broth microdilution, S. haemolyticus ATCC 29970. Type of experiment: cell-based. The settings on record: for MIC: Staphylococcus haemolyticus, ATCC29970; for In vitro AB activity (MIC): Table 2.1, S. haemolyticus ATCC 29970. As for the experimental part: as §1
Another experiment concerns S. aureus VRS2. The experiment can be described thus: MIC, CLSI broth microdilution, S. aureus VRS2. It is filed as cell-based, Staphylococcus aureus. Conditions: for MIC: Staphylococcus aureus; for In vitro AB activity (MIC): Table 2.1, S. aureus VRS2. The method, then: as §1
A further experiment concerns S. aureus NRS128. The experiment can be described thus: MIC, CLSI broth microdilution, S. aureus NRS128. Type of experiment: cell-based, Staphylococcus aureus. Conditions: Table 2.1, S. aureus NRS128. As for the experimental part: as §1
The test system of the next experiment is S. aureus NRS100. As to the kind of experiment: MIC, CLSI broth microdilution, S. aureus NRS100. It is filed as cell-based, Staphylococcus aureus. The settings on record: for MIC: Staphylococcus aureus; for In vitro AB activity (MIC): Table 2.1, S. aureus NRS100. The method, then:
as §1

Experiment [3] relates to S. aureus ATCC 29213 (MSSA). As to the kind of experiment: MIC, CLSI broth microdilution, S. aureus ATCC 29213. It is filed as cell-based, Staphylococcus aureus. The settings on record: Table 2.1, S. aureus ATCC 29213. As for the experimental part:
as §1

Another experiment relates to S. aureus NRS120. The experiment can be described thus: MIC, CLSI broth microdilution, S. aureus NRS120. It is filed as cell-based, Staphylococcus aureus. The settings on record: for MIC: Staphylococcus aureus; for In vitro AB activity (MIC): Table 2.1, S. aureus NRS120. The method, then:
as §1

A further experiment concerns S. aureus NRS119. The experiment can be described thus: MIC, CLSI broth microdilution, S. aureus NRS119. It is filed as cell-based, Staphylococcus aureus. Conditions: for MIC: Staphylococcus aureus; for In vitro AB activity (MIC): Table 2.1, S. aureus NRS119. As for the experimental part: as §1
For the next experiment, the system named is S. aureus VRS1. The experiment can be described thus: MIC, CLSI broth microdilution, S. aureus VRS1. It is filed as cell-based, Staphylococcus aureus. The settings on record: for MIC: Staphylococcus aureus; for In vitro AB activity (MIC): Table 2.1, S. aureus VRS1. As for the experimental part:
as §1

[4] abbreviates: NRS70, Table 3, single agent, read-out: MIC NRS70.
[5] abbreviates: NRS123, Table 3, single agent, read-out: MIC NRS123.
[6] abbreviates: Table 2, S. aureus NRS70, read-out: MIC.
Where [7] appears, read: Table 2, S. haemolyticus ATCC 29970, read-out: MIC.
Setting [8] is: Table 2, S. aureus NRS123, read-out: MIC.
Setting [9] is: Table 2, S. aureus VRS2, read-out: MIC.
Where [10] appears, read: Table 2, S. aureus NRS100, read-out: MIC.
Where [11] appears, read: Table 2, S. aureus NRS120, read-out: MIC.
Where [12] appears, read: Table 2, S. aureus NRS119, read-out: MIC.
[13] abbreviates: Table 2, S. aureus VRS1, read-out: MIC.

Values after ≈ are worked out from the molar mass of the structure shown. Where two headings read alike, the source gives them in different places.

A word on the MIC: it is the smallest concentration in the dilution series that meets the test's criterion for growth inhibition.

`CO/N=C(\C(=O)N[C@@H]1C(=O)N2C(C(=O)[O-])=C(C[N+]3(C)CCCC3)CS[C@H]12)c1csc(N)n1` [cefepime]: the MIC in the experiment on S. aureus NRS70 (setting [4]) was found to be 64 µg/mL (≈ 133 µM); in the experiment on S. aureus NRS123 (setting [5]), 32 µg/mL (≈ 66.6 µM).
In the case of `CC(=O)NC[C@H]1CN(c2ccc(N3CCOCC3)c(F)c2)C(=O)O1` [linezolid], the minimum inhibitory concentration (MIC) worked out at 1 µg/mL (≈ 2.96 µM) in the experiment on S. aureus NRS70 (setting [6]); 1 µg/mL (≈ 2.96 µM) in experiment [1] (Table 2, S. epidermidis ATCC 35547, read-out: MIC); 1 µg/mL (≈ 2.96 µM) in [2] (setting [7]); 2 µg/mL (≈ 5.93 µM) with S. aureus NRS123 (setting [8]); 1 µg/mL (≈ 2.96 µM) in the experiment with S. aureus VRS2 (setting [9]); 2 µg/mL (≈ 5.93 µM) in the experiment with S. aureus NRS100 (setting [10]). For the same molecule, the MIC was 64 µg/mL (≈ 190 µM) in the experiment on S. aureus NRS120 (setting [11]), 64 µg/mL (≈ 190 µM) in the experiment on S. aureus NRS119 (setting [12]) and 2 µg/mL (≈ 5.93 µM) in the experiment with S. aureus VRS1 (setting [13]). Moreover, the In vitro AB activity (MIC) came out at 1 µg/mL in the experiment with S. aureus NRS70; 1 µg/mL in [1]; 2 µg/mL in experiment [2]; 2 µg/mL with S. aureus VRS2; 1 µg/mL in the experiment on S. aureus NRS128; 2 µg/mL in the experiment with S. aureus NRS100. For the same molecule, the In vitro AB activity (MIC) in experiment [3] was 4 µg/mL; in the experiment on S. aureus NRS120, 32 µg/mL; in the experiment on S. aureus NRS119 it was 32 µg/mL; with S. aureus VRS1, 2 µg/mL.
As to `Cc1onc(-c2ccccc2)c1C(=O)N[C@@H]1C(=O)N2[C@@H]1SC(C)(C)[C@@H]2C(=O)O` [oxacillin], the MIC in the experiment on S. aureus NRS70 (setting [4]) came out at 64 µg/mL (≈ 159 µM); in the experiment on S. aureus NRS70 (setting [6]) it was 32 µg/mL (≈ 79.7 µM); in experiment [2] (setting [7]), 0.25 µg/mL (≈ 0.623 µM); in the experiment on S. aureus NRS123 (setting [5]), 32 µg/mL (≈ 79.7 µM); with S. aureus NRS123 (setting [8]), 32 µg/mL (≈ 79.7 µM); with S. aureus VRS2 (setting [9]), 256 µg/mL (≈ 638 µM). For the same molecule, the MIC with S. aureus NRS100 (setting [10]), in the experiment with S. aureus NRS120 (setting [11]), in the experiment on S. aureus NRS119 (setting [12]) and in the experiment on S. aureus VRS1 (setting [13]) was 512 µg/mL (≈ 1280 µM) each time. Moreover, the In vitro AB activity (MIC) came to 32 µg/mL with S. aureus NRS70; 0.25 µg/mL in [2]; 256 µg/mL in the experiment on S. aureus VRS2; 0.5 µg/mL in the experiment with S. aureus NRS128; 512 µg/mL with S. aureus NRS100; 0.25 µg/mL in experiment [3]. Also, the In vitro AB activity (MIC) with S. aureus NRS120, with S. aureus NRS119 and in the experiment on S. aureus VRS1 was 512 µg/mL in each case.
Take `CN[C@H](CC(C)C)C(=O)N[C@H]1C(=O)N[C@@H](CC(N)=O)C(=O)N[C@H]2C(=O)N[C@H]3C(=O)N[C@H](C(=O)N[C@H](C(=O)O)c4cc(O)cc(O)c4-c4cc3ccc4O)[C@H](O)c3ccc(c(Cl)c3)Oc3cc2cc(c3O[C@@H]2O[C@H](CO)[C@@H](O)[C@H](O)[C@H]2O[C@H]2C[C@](C)(N)[C@H](O)[C@H](C)O2)Oc2ccc(cc2Cl)[C@H]1O` [vancomycin]: the MIC came to 1 µg/mL (≈ 0.69 µM) with S. aureus NRS70 (NRS70); 64 µg/mL (≈ 44.2 µM) in [1]; 2 µg/mL (≈ 1.38 µM) in experiment [2]; 1 µg/mL (≈ 0.69 µM) in the experiment on S. aureus NRS123 (NRS123); 64 µg/mL (≈ 44.2 µM) in the experiment with S. aureus VRS2 (VRS2); 2 µg/mL (≈ 1.38 µM) in the experiment on S. aureus NRS100 (NRS100). For the same molecule, the figures for the minimum inhibitory concentration (MIC) against S. aureus NRS120 (NRS120), in the experiment on S. aureus NRS119 (NRS119) and against S. aureus VRS1 (VRS1) were 2 µg/mL (≈ 1.38 µM), 2 µg/mL (≈ 1.38 µM) and more than 256 µg/mL, respectively. Also, the In vitro AB activity (MIC) came to 1 µg/mL in the experiment on S. aureus NRS70; 16 µg/mL in experiment [1]; 2 µg/mL in experiment [2]; 64 µg/mL in the experiment on S. aureus VRS2; 1 µg/mL with S. aureus NRS128; 2 µg/mL with S. aureus NRS100. For the same molecule, the In vitro AB activity (MIC) in experiment [3] was found to be 1 µg/mL; in the experiment on S. aureus NRS120, 2 µg/mL; with S. aureus NRS119, 2 µg/mL; in the experiment on S. aureus VRS1 it was 512 µg/mL.
